Assay results: ChEMBL document CHEMBL1201862, “PubChem BioAssay data set” (2004)
Active and inactive are the calls of the source.

Legend:
Cytochrome P450 1A2 [1] = target: T1, Cytochrome P450 1A2 (Homo sapiens, UniProt P05177);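 note: PubChem cytochrome P450 panel assay, CYP1A2 panel member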
T1 sequence (P05177 whole entry): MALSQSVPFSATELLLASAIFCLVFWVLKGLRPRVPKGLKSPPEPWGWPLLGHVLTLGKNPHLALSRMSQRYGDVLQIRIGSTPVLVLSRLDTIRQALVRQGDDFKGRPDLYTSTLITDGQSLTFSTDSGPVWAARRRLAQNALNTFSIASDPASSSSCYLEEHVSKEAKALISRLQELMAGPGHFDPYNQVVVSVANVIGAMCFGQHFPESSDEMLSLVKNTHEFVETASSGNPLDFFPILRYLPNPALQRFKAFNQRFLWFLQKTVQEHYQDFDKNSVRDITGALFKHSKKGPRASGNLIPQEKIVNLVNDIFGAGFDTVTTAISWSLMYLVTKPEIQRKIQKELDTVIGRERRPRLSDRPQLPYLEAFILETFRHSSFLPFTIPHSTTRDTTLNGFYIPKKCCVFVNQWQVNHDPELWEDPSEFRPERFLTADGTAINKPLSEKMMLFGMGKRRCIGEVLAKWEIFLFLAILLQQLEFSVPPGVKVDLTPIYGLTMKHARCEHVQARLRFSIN

[2] = Luminescence Cell-Based Dose Confirmation HTS to Identify Activators of 5'UTR Stem-Loop Driven Alpha-Synuclein mRNA Translation in H4 Neuroglioblastoma Cells. [Related pubchem assays: 1829 (Project Summary), 1814 (Primary HTS)]; assay type: functional
[3] = A Cell Based Secondary Assay To Explore Cytotoxicity of Compounds that Sensitize Mycobacterium Tuberculosis to Beta-Lactam Antibiotics.; assay type: functional
H4 = assay: Luminescence Cell-Based Dose Response HTS to Identify Activators of 5'UTR Stem-Loop Driven Prion Protein mRNA Translation in H4 Neuroglioblastoma Cells. [Related pubchem assays: 1829 (Project Summary), 1814 (Primary HTS)]; assay type: functional; details: Homo sapiens
[4] = target: T2, Microphthalmia-associated transcription factor (Homo sapiens, UniProt O75030); assay: reducers of TRPM1 reporter luminescence, concentration series – cell-based, SK-MEL-5, cherry-picked, set 3, MITF inhibitor project, dose response (AID 493073); assay type: functional;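 note: SK-MEL-5 melanoma cells with luciferase driven by the MITF target TRPM1 promoter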
T2 sequence (O75030 whole entry): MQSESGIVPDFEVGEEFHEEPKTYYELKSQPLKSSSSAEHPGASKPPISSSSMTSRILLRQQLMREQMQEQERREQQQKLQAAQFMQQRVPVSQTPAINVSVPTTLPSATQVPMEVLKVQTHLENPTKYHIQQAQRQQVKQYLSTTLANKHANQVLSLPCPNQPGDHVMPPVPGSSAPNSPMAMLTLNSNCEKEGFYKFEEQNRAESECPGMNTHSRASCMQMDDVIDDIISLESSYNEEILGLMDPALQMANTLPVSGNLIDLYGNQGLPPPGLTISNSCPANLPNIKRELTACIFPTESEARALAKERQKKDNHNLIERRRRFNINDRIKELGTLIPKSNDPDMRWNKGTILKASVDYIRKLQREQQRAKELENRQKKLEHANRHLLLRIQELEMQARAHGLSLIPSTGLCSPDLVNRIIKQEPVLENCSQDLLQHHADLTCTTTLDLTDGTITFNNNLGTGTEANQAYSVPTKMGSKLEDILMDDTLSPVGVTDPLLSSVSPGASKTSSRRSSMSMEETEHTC

A-375 = assay: MITF: Counter assay: A375 proliferation Measured in Cell-Based System Using Plate Reader - 2084-03_Inhibitor_Dose_DryPowder_Activity. [Related pubchem assays (depositor defined):AID488944]; assay type: functional; details: Homo sapiens
[5] = luciferase reporter signal suppression in cells – H4 neuroglioma cells, luminescence, dose response (AID 1990); assay type: functional, cell-based
[6] = Luminescence Cell-Based Dose Response HTS to Identify Inhibitors of 5'UTR Stem-Loop Driven Prion Protein mRNA Translation in H4 Neuroglioblastoma Cells. [Related pubchem assays: 1827 (Project Summary), 1813 (Primary HTS)]; assay type: functional
[7] = alpha-synuclein stem-loop luciferase translation blockers – H4 neuroglioma cells, luminescence, confirmation (AID 1988); assay type: functional, cell-based
[8] = target: T3, Replicative DNA helicase DnaB (Mycobacterium tuberculosis, UniProt P9WMR3); assay: DnaB intein splicing inhibitors, dose response, biochemical, cell-free fluorescence (AID 449749); assay type: functional
T3 sequence (P9WMR3 whole entry): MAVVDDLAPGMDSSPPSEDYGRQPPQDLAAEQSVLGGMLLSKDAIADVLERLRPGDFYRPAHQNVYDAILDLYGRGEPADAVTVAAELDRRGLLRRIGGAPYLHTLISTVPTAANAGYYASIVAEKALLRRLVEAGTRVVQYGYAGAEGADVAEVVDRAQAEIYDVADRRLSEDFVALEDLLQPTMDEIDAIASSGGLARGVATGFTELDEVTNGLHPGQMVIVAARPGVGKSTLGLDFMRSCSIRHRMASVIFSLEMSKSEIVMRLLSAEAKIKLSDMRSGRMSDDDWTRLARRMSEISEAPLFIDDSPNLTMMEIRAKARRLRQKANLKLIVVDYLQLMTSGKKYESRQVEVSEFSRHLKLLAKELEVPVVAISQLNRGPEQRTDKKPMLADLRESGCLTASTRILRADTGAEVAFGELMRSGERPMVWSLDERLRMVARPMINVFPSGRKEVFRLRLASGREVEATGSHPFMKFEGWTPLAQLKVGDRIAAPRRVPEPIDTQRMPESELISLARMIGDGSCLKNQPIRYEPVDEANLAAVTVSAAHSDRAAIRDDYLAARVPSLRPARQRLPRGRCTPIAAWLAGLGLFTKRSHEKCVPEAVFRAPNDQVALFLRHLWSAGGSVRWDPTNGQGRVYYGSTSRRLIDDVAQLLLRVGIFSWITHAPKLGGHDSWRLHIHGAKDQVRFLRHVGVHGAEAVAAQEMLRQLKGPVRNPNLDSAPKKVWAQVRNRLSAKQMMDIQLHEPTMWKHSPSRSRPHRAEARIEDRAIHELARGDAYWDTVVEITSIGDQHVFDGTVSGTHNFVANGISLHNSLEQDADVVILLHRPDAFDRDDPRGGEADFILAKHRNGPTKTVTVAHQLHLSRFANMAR

Protein RecA = target: T4, Protein RecA (Mycobacterium tuberculosis, UniProt P9WHJ3); assay: Fluorescence Cell-Free Homogeneous Dose Retest to Identify Inhibitors of RecA-Intein Splicing Activity. [Related pubchem assays (depositor defined):AID2097, AID2223, AID489010, AID492950]; assay type: functional
T4 sequence (P9WHJ3 whole entry): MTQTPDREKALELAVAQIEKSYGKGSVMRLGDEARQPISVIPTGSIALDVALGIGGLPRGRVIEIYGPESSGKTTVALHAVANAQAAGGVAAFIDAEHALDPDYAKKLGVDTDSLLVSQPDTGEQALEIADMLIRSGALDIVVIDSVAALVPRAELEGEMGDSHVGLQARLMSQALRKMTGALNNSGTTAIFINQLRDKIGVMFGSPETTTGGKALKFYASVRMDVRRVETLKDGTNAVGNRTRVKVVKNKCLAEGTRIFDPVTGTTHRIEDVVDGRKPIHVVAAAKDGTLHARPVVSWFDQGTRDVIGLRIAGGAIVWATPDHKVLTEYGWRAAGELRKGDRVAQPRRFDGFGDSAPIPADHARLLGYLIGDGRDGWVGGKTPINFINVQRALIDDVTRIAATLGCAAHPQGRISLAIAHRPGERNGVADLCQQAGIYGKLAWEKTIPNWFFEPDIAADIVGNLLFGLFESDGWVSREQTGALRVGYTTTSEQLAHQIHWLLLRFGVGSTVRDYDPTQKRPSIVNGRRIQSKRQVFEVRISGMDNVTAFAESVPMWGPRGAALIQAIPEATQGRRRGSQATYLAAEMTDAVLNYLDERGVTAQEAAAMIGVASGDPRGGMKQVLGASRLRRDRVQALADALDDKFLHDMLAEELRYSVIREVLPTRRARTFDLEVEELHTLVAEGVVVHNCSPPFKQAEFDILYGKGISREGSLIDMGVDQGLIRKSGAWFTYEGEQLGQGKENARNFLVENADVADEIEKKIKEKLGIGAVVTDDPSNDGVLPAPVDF

[9] = target: T5, Long-chain-fatty-acid--AMP ligase FadD28 (Mycobacterium tuberculosis, UniProt P9WQ59); assay: Fluorescence polarization aasay to screen for inhibitors that compete for the binding of FadD28 to a bisubstrate Measured in Biochemical System Using Plate Reader - 2147-01_Inhibitor_Dose_CherryPick_Activity.; assay type: functional, Mycobacterium tuberculosis H37Rv
T5 sequence (P9WQ59 whole entry): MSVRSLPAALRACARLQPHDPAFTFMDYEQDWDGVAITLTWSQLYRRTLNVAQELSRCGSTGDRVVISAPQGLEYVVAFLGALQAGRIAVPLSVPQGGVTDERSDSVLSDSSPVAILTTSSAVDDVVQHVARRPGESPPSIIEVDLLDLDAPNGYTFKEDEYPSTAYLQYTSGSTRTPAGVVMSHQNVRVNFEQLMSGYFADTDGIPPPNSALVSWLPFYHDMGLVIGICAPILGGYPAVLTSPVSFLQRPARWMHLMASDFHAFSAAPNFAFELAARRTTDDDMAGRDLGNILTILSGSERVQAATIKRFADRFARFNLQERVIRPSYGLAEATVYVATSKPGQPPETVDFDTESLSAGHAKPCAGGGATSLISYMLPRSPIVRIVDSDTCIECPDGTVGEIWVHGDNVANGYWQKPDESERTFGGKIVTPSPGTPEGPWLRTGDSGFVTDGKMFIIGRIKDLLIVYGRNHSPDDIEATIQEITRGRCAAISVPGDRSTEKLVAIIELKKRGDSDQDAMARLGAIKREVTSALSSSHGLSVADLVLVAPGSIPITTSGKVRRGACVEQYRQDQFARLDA

Cytochrome P450 3A4 = Cytochrome P450 3A4 (Homo sapiens, UniProt P08684);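 note: CYP3A4 tested as one member of a cytochrome P450 panel screen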
[10] = target: T6, Heat shock factor protein 1 (Mus musculus, UniProt P38532); assay: decrease of HSF1-responsive luciferase luminescence – cell-based, NIH3T3, dose retest, confirmation (AID 2382); assay type: functional;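 note: NIH3T3 fibroblasts with HSF1-driven luciferase reporter stressed by proteasome inhibitor MG132; luminescence from HSF1-driven luciferase expression after 8 hours of MG132 stress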
T6 sequence (P38532 whole entry): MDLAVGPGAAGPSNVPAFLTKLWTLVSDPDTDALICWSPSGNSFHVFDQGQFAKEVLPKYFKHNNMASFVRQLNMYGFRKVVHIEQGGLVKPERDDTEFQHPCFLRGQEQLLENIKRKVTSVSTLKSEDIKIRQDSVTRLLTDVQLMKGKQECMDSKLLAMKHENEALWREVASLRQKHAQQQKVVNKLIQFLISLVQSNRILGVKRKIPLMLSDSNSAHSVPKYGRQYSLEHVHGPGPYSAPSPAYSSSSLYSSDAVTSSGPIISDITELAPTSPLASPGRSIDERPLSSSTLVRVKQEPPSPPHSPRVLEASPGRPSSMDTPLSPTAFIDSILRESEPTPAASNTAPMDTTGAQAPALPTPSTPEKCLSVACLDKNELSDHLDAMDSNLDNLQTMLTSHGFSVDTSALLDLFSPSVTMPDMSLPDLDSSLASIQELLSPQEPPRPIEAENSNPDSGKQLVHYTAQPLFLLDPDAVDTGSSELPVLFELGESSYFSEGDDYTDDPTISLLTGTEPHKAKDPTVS

Jurkat = assay: blockers of NF-kB activation in T cells – Jurkat, luciferase reporter, luminescence, B- and T-cell, dose response (AID 489004); assay type: functional, cell-based; details: Homo sapiens;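 note: NF-kB luciferase reporter Jurkat cells stimulated with PMA plus ionomycin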
[11] = HEK-293T viability loss, compound-treated – cell-based, uHTS hits, cytotoxicity control for B/T-cell NF-kB inhibitor project, dose response (AID 489019); assay type: functional;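 note: IC50 reflects cytotoxicity as loss of cell viability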
Paired box protein Pax-8 = Paired box protein Pax-8 (Homo sapiens, UniProt Q06710); assay: PAX8 transcriptional activity inhibition in RMG-I – RMG-I cells, luciferase, cherry-pick, dose response (AID 687027); assay type: functional, cell-based;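 note: luciferase reporter driven by Pax8 target thyroperoxidase promoter measured by SteadyGlo luminescence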
[12] = HGIII-sPLA2 enzyme inhibition potency – biochemical, QFRET, IC50, dose response (AID 743457);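 note: green fluorescence rise as the enzyme cleaves BODIPY PC-A2 in liposomes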
[13] = general cell-killing toxicity readout – plate reader, dry powder samples, cytotoxicity control for PAX8 inhibitor project, dose response (AID 743021); assay type: functional, cell-based
SUMO E1/E2 = SUMO E1/E2 (Homo sapiens, UniProt P63279+Q9UBE0+Q9UBT2); assay: SAR analysis of SUMOylation using HTRF in an in-Vitro dose response assay. [Related pubchem assays (depositor defined):AID2006, AID2011, AID2018, AID2069, AID2658]; assay type: functional
Cytochrome P450 1A2 [14] = target: T1, Cytochrome P450 1A2; remark: listed apart in the source

Cytochrome P450 3A4, sequence (P08684 whole entry): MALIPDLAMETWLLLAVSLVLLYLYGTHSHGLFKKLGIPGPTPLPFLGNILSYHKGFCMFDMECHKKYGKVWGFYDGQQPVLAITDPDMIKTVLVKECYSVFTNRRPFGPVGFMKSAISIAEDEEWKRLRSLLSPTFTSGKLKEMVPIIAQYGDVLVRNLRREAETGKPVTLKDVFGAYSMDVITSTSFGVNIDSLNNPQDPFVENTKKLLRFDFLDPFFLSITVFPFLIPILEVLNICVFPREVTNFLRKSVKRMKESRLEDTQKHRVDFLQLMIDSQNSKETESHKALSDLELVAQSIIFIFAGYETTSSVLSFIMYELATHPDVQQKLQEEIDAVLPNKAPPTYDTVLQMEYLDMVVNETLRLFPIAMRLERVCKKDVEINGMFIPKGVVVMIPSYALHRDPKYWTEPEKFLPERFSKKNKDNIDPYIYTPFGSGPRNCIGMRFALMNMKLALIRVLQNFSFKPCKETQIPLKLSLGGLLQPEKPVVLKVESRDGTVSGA
Paired box protein Pax-8, sequence (Q06710 whole entry): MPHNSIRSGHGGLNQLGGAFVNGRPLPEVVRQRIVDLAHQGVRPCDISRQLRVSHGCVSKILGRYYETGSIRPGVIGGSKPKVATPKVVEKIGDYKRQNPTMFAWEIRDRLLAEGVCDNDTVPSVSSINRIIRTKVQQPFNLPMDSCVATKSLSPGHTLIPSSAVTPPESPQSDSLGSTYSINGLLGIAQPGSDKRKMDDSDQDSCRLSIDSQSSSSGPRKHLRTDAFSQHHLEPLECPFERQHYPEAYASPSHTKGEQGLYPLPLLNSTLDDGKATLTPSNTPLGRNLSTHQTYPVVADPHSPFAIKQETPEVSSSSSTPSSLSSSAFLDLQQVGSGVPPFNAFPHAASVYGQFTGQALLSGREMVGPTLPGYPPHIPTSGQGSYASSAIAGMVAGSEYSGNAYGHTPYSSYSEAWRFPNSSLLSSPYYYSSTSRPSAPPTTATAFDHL
SUMO E1/E2, sequence (Q9UBE0 whole entry): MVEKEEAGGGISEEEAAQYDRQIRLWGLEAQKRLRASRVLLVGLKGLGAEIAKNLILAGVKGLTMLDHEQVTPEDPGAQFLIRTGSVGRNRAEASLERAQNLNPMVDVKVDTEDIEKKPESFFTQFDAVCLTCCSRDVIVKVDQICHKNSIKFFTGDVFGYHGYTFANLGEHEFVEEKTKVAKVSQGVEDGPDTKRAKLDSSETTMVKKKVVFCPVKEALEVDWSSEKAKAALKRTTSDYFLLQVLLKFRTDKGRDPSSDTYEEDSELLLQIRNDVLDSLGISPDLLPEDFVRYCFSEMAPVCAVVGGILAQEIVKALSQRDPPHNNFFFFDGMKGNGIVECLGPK
SUMO E1/E2, sequence (Q9UBT2 whole entry): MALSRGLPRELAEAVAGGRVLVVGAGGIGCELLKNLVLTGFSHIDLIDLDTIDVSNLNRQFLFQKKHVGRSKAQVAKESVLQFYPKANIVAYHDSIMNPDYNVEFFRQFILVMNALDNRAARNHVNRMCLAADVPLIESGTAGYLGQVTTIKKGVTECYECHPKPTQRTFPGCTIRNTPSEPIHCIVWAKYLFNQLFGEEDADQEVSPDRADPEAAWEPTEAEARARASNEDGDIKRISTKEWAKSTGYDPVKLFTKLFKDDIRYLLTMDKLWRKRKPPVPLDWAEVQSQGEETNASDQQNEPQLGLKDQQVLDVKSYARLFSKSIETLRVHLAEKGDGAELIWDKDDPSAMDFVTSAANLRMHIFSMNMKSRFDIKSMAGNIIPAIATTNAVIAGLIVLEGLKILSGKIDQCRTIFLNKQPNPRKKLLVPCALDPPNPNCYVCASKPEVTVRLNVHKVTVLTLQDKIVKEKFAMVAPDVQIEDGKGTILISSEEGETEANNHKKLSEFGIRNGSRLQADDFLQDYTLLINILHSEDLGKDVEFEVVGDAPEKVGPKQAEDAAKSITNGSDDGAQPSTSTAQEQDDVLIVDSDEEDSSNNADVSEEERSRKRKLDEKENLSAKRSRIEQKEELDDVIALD
SUMO E1/E2, sequence (P63279 whole entry): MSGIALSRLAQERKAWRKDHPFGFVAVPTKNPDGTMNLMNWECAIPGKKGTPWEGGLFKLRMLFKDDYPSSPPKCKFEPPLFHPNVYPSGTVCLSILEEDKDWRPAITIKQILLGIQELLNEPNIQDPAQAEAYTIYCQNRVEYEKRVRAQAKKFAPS

COc1ccc(CCN(C)CCC[C@@](C#N)(c2cc(OC)c(OC)c(OC)c2)C(C)C)cc1OC
AC50 (Cytochrome P450 1A2 [1]): inactive

O=C(CCl)N(c1ccccc1)C1CCS(=O)(=O)C1 (stereo unspecified)
EC50 [2]: > 120 µM (not active) | CC50 [3]: 6.82 µM (active) | EC50 (H4): > 120 µM (not active) | AC50 [4]: 9.35 µM (active) | AC50 (A-375): 27.7 µM (active)

O=C1C([N-]S(=O)(=O)c2cccs2)=C([n+]2ccccc2)C(=O)c2ccccc21
EC50 [5]: 12.9 µM (active) | EC50 [6]: 14.2 µM (active) | EC50 [7]: > 120 µM (not active) | AC50 [4]: 1.07 µM (active) | AC50 [8]: 10.2 µM (active) | EC50 (Protein RecA): 6.59 µM (active) | AC50 (A-375): 25.5 µM (active) | AC50 [9]: > 100 µM (inactive)

Cn1ncc2c(Nc3cccc(C(=O)O)c3)ncnc21
AC50 (Cytochrome P450 3A4): inconclusive

C/N=c1\scc(-c2ccccc2F)n1/N=C/c1ccc[nH]1
EC50 [10]: < 0.16 µM (active) | IC50 (Jurkat): 0.38 µM (active) | IC50 [11]: > 80 µM (inactive) | AC50 [4]: 0.019 µM (active) | AC50 (Paired box protein Pax-8): < 0.26 µM (active) | IC50 [12]: 50.6 µM (inactive) | AC50 [13]: 44.3 µM (active)

CCC(=O)O[C@H](CC(=O)[O-])C[N+](C)(C)C
AC50 (Cytochrome P450 1A2 [1]): inconclusive

Clc1ccc2c(c1)C1C=CCC1C(c1ccccc1)N2 (stereo unspecified)
IC50 (SUMO E1/E2): > 100 µM (inactive)

COC(=O)N1CCC2(CC1)CN(c1ccc(-c3ccccc3)cc1)C2
AC50 (Cytochrome P450 1A2 [14]): 1.26 µM (inconclusive) | AC50 (Cytochrome P450 3A4): inconclusive
